Measured values reported in patent US20190369111A1, “MOLECULAR KINETICS EVALUATION METHOD AND SCREENING METHOD” (Tokyo University of Science Foundation, priority 2016, published 2019).
Non-standard residues stand in square brackets, D forms with d. Residues, ends and D or L forms follow the SMILES beside them. Nle = CCCC[C@H](N)C(=O)O

Assays:
[1] = biological target: T1, catalytic subunit β1 of a proteasome (caspase-like activity) (Homo sapiens, UniProt P28072); settings: reported by Kaiser, M. et al., 2004; patent's result consistent; cited from earlier work
T1 construct: purchased Bioscience

[2] = biological target: T1, catalytic subunit β1 of a proteasome (caspase-like activity); assay: 20S proteasome inhibitory activity, catalytic subunit β1; format: biochemical; settings: AMC fluorescence substrate
Protocol: (§1) For evaluation, 20S Proteasome StressXpress™ Assay Kit Gold (Bioscience) was used. AMC was measured by using Multi-Detection Microplate Reader (Synergy HT, BIO-TEK). The AMC was produced by cleaving the C-terminus of an AMC-binding proteasome fluorescence substrate specific to β subunits of a 20S proteasome, including β5 (chymotrypsin-like activity), β2 (trypsin-like activity), and β1 (caspase-like activity). The measuring wavelengths were 360 nm for excitation light (Ex.), and 460 nm for fluorescence (Em.).
(§2) In Reference Example 11, as in Reference Example 4, a proteasome inhibitory activity of TMP-CANDDY_ALLN and an affinity of TMP-CANDDY_ALLN with a proteasome were evaluated.

[3] = biological target: T2, catalytic subunit β2 of the proteasome (trypsin-like activity) (Homo sapiens, UniProt Q99436); assay: 20S proteasome inhibitory activity, catalytic subunit β2; format: biochemical; settings: AMC fluorescence substrate
T2 construct: purchased Bioscience
Protocol: as §1, §2

[4] = biological target: T3, catalytic subunit β5 of the proteasome (chymotrypsin-like activity) (Homo sapiens, UniProt P28074); assay: 20S proteasome inhibitory activity, catalytic subunit β5; format: biochemical; settings: AMC fluorescence substrate
T3 construct: purchased Bioscience
Protocol: as §1, §2

20S proteasome = biological target: T4, 20S proteasome (Homo sapiens, UniProt P28072+P28074+Q99436); assay: Affinity with a proteasome evaluated from 20S proteasome assay kit; format: biochemical; settings: suggested from concentration dependent inhibitory activity against β1, β2, β5
T4 construct: purchased Bioscience
Protocol: In Reference Example 2, the proteasome inhibitory activity of TMP-CANDDY_DMT and the affinity of TMP-CANDDY_DMT with a proteasome were evaluated. As a positive control, MG-132 as a proteasome inhibitor was used.
as §1, §2

ecDHFR protein [5] = biological target: T5, ecDHFR protein (Escherichia coli, UniProt P0ABQ4); format: cell-based, human; settings: HeLa cells, 24 hours after addition, vs control (DMSO)
T5 construct: expressed in transfected cells; host or cells: HeLa cells, transient transfection with pMIR-DsRed-IRES-ecDHFR-HA-GFP

ecDHFR protein [6] = biological target: T5, ecDHFR protein; format: cell-based, human; settings: HeLa cells
endogenous DHFR protein = biological target: T6, endogenous DHFR protein (Homo sapiens, UniProt P00374); assay: Degradation of endogenous DHFR protein in HeLa cells, Western blot analysis; format: cell-based; settings: 50 μM, 100 μM or 200 μM, 16 hours after addition
T6 construct: degradation (knockdown) of an endogenous DHFR protein in HeLa cells; endogenous in cells; host or cells: HeLa cells
T6 sequence (P00374 1-187): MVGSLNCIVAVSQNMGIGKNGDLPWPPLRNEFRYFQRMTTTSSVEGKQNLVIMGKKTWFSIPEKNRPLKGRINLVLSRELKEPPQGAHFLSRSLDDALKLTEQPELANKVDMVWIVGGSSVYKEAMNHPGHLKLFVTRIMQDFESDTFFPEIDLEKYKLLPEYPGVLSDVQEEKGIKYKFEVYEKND

DHFR protein = biological target: T7, DHFR protein (Mus musculus, UniProt P00375); assay: Degradation of DHFR protein in each tissue of mouse after administration, Western blot analysis; format: in vivo
T7 construct: administered intraperitoneally to C57BL/6J wild-type mice; from tissue; host or cells: C57BL/6J wild-type mice: liver, kidneys, heart
T7 sequence (P00375 1-187): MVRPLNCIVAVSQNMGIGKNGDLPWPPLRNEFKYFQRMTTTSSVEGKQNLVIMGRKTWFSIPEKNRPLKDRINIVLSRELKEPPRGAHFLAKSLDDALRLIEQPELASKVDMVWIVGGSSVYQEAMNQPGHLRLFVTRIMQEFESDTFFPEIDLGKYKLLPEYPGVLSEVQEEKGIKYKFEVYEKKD
Protocol: MTX-CANDDY_MLN was dissolved in DMSO immediately before administration, and then dissolved in corn oil (Code No. 25606-55, Nacalai Tesque) so that the concentration of DMSO was 10 vol %, and then a dose of 50 mg/kg body weight or 100 mg/kg body weight was administered intraperitoneally to C57BL/6J wild-type mice (7 weeks old, male) (CLEA Japan, Inc.) (n=3). […] As a control, an injection carrier (corn oil containing 10 vol % DMSO) was used. The mice were kept under an environment of ad libitum access to food and water. The mice were dissected under deep anesthesia by Somnopentyl (Kyoritsu Seiyaku Corporation) 24 hours after administration. Abdominal section was performed, and then the liver, kidneys, and heart were sequentially extracted and flash frozen in liquid nitrogen. Each tissue frozen in liquid nitrogen was stored in a deep freezer at −80° C.
The frozen tissues (0.04 g) were each frozen and triturated, and then 980 μL of 1×TKM tissue lysis buffer (50 mM triethanolamine (pH 7.8), 50 mM KCl, 5 mM MgCl2, 0.25 M sucrose, 1 mM PMSF, protein inhibitors cocktail-EDTA free (Code No. 03969-21, Nacalai Tesque, Inc.), 1 mM DTT, and 5 μL/mL recombinant RNase inhibitor (40 U/μL, Cat No. 2313A, Lot No. K8402DA, TAKARA Bio)) were added, and dissolved by rotation for 15 minutes (1 rpm, 25° C.). Then, the resultant product was subjected to centrifugation (at 3000 rpm×15 minutes, 4° C.), and the supernatants (each tissue extract) were collected. The concentration of proteins in each tissue extract was quantified with a spectrophotometer using each tissue extract that had been diluted 20 times using DEPC-treated water.
Each tissue extract collected was subjected to Western blot analysis. An SDS-PAGE gel was prepared using TGX™ FastCast™ Acrylamide Kit, 12% (Bio-Rad). Electrophoresis samples were prepared in a 6×SDS-PAGE sample buffer (62.5 mM Tris-HCl pH 6.8, 2% SDS, 5% 2-mercaptoethanol, 10% glycerol, 0.25% BPB), and placed on a heat block at 95° C. for 5 minutes. The electrophoresis samples prepared were applied at 50 μg/well for detection of GAPDH, and applied at 100 μg/well for other detection. Electrophoresis was performed at 160 V for 60 minutes (electrophoresis buffer; 195 mM glycine, 25 mM Tris).
After electrophoresis, proteins were transferred to a PVDF membrane (Immobion™-P, Millipore) under conditions of 100 V and 1.5 hours using a tank-type blotting device and a transfer buffer (25 mM Tris-HCl, 195 mM glycine, 0.01% SDS, 15% methanol). […] Subsequently, the membrane was treated with a chemiluminescence reagent Immobilon™ Western (Millipore), and then chemiluminescence was detected using a lumino image analyzer LAS-3000 (FUJIFILM Corporation). Detected bands were quantified with an image processing software ImageJ (NIH).

SMILES: CCCC[C@@H](C=O)NC(=O)[C@H](CC(C)C)NC(=O)[C@H](CC(C)C)NC(C)=O [ALLN, Calpain inhibitor I] (Ac-Leu-Leu-[Nle]-aldehyde)
- inhibition of β1 (caspase-like activity) [1]: not inhibited

SMILES: COc1nc(NCCCCCCNC(=O)COc2c(OC)cc(Cc3cnc(N)nc3N)cc2OC)nc(OC)n1 [TMP-CANDDY_DMT]
- proteasome inhibitory activity against β1 (caspase-like activity) [2]: significantly lower proteasome inhibitory activity as compared with MG-132
- proteasome inhibitory activity against β2 (trypsin-like activity) [3]: significantly lower proteasome inhibitory activity as compared with MG-132
- proteasome inhibitory activity against β5 (chymotrypsin-like activity) [4]: significantly lower proteasome inhibitory activity as compared with MG-132
- affinity with a proteasome (20S proteasome): moderate affinity with a proteasome
- degradation (knockdown) of ecDHFR protein (shift of GFP/DsRed ratio graph) (ecDHFR protein [5]): degradation of the ecDHFR protein was induced
- amount of ecDHFR protein (ecDHFR protein [6]; 24 hours after addition, cycloheximide 50 μg/mL added after 12 hours): the amount of the ecDHFR protein was reduced
- degradation of ecDHFR protein when bortezomib is added together (ecDHFR protein [6]; both TMP-CANDDY_DMT and bortezomib added, compared with TMP-CANDDY_DMT alone): degradation of the ecDHFR protein was inhibited

SMILES: CC(C)C[C@H](NC(=O)CNC(=O)c1cc(Cl)ccc1Cl)C(=O)NCCCCCCNC(=O)CC[C@H](NC(=O)c1ccc(N(C)Cc2cnc3nc(N)nc(N)c3n2)cc1)C(=O)O [MTX-CANDDY_MLN]
- amount of endogenous DHFR protein (endogenous DHFR protein): decreased in a concentration dependent manner
- amount of DHFR protein in heart (DHFR protein; intraperitoneal 50 or 100 mg/kg body weight, 24 hours after administration, heart): reduction in the amount of the DHFR protein was not found
- amount of DHFR protein in kidneys (DHFR protein; intraperitoneal 50 or 100 mg/kg body weight, 24 hours after administration, kidneys): reduced in a concentration dependent manner
- amount of DHFR protein in liver (DHFR protein; intraperitoneal 50 or 100 mg/kg body weight, 24 hours after administration, liver): reduced in a concentration dependent manner
- transfer property to tissues (molecular kinetics) (DHFR protein; suggested from DHFR degradation in tissues): showed a higher transfer property in the liver and kidneys, as compared with the heart
